Measured values published in patent US20110269812A1, “NOVEL BENZYLIDENE-INDOLINONE AND THEIR MEDICAL AND DIAGNOSTIC USES” (Agency for Science, Technology and Research, priority 2008, published 2011).
Where two headings read alike, the source gives them in different places.

Assays:
[1] = system: Hep3B, Hs817T, PLC/PRF/5 and SK-Hep 1; experiment: Cell Titer-Glo viability, panel of 4 additional HCC cell lines; format: cell-based, human
Description: (§1) The efficacy of compound 47 against HCC proliferation was tested on a wider panel of HCC cell lines: Hep3B ([…]), Hs817T (▪), PLC/PRF/5 (▴) and SK-Hep 1 (▾), as determined by Cell Titer-Glo assay.
(§2) Cells were plated at 5000-7000 cells/per well and incubated for 24 h before treatment. […] Cell Titer-Glo (Promega, Madison, Wis.) assay was performed according to manufacturer's instruction with luminescence detected on SpectraMax M5 (Molecular Devices, Sunnyvale, Calif.). Data was expressed as percentage of viability vs. vehicle-treated controls.
(§3) Accordingly, Compound 47 was screened against a larger panel of 4 additional HCC cell lines.

EGFR [2] = biological target: T1, EGFR (Homo sapiens, UniProt P00533); format: cell-based; details: 24 h, untreated 0.15
T1 construct: Cells treated similarly were immunoprecipitated with anti-EGFR, anti-EphA2 and anti-Tyro3; endogenous in cells; host or cells: HuH7
Description: (§4) Kinase phosphorylation changes were determined with human phospho-RTK array.
(§5) Cells harvesting, hybridization with RTK array and incubation with anti-phosphotyrosine were performed according to manufacturer's instruction. Imaging and quantification of the spots intensities was with Fujifilm LAS-3000 (Tokyo, Japan). Average signal of the duplicate spots for each RTK was determined.

IGF-1R [3] = biological target: T2, IGF-1R (Homo sapiens, UniProt P08069); experiment: Immunoblot of phospho-IGF-1R in HuH7; format: cell-based; details: HuH7, 24 h; Compound 47 1, 5 or 10 μM, sunitinib 10 μM
T2 construct: we examined the constitutively phosphorylated IGF-1R, EphA2 and Tyro3; endogenous in cells; host or cells: HuH7

EphA2 = biological target: T3, EphA2 (Homo sapiens, UniProt P29317); experiment: Immunoprecipitation / anti-phosphotyrosine blot of EphA2 in HuH7; format: cell-based; details: HuH7, 24 h; Compound 47 1, 5 or 10 μM, sunitinib 10 μM
T3 construct: we examined the constitutively phosphorylated IGF-1R, EphA2 and Tyro3; endogenous in cells; host or cells: HuH7

Hs817T = experiment: Cell Titer-Glo viability, Hs817T; format: cell-based, human; details: 5 μM
Description: as §1, §2, §3

Her3 = biological target: T4, Her3 (Homo sapiens, UniProt P21860); experiment: Human phospho-RTK array, HuH7: Her3; format: cell-based; details: 24 h, untreated 0.05
T4 construct: endogenous in cells; host or cells: HuH7
Description: as §4, §5

Tyro3 [4] = biological target: T5, Tyro3 (Homo sapiens, UniProt Q06418); experiment: Human phospho-RTK array, HuH7: Tyro-3; format: cell-based; details: 24 h, untreated 0.15
T5 construct: we examined the constitutively phosphorylated IGF-1R, EphA2 and Tyro3; endogenous in cells; host or cells: HuH7
T5 sequence (Q06418 41-890): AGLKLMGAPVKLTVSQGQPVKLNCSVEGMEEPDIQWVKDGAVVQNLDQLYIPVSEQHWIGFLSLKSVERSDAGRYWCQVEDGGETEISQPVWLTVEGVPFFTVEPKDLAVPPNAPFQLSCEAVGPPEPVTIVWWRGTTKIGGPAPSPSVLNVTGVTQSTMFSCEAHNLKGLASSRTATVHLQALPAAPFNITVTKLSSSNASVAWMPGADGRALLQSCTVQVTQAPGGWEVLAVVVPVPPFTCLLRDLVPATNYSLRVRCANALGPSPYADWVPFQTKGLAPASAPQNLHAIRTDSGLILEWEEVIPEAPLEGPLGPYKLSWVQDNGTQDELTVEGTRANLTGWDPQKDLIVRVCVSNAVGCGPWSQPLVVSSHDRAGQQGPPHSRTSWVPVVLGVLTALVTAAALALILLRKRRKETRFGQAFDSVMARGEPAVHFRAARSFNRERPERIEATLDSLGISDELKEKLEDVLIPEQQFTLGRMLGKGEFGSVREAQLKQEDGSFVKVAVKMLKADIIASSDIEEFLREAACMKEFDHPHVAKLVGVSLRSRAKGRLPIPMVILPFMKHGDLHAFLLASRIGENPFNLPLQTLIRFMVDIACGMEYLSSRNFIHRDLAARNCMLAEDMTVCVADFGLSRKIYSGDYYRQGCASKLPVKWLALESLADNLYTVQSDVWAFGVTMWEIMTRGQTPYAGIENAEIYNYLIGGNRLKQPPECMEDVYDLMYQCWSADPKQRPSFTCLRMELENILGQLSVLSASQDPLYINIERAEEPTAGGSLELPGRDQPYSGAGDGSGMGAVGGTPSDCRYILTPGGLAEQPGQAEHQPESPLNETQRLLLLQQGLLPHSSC
Description: as §4, §5

SK-Hep1 = experiment: Cell Titer-Glo viability, SK-Hep1; format: cell-based; details: Homo sapiens
Description: as §1, §2, §3

Ron = biological target: T6, Ron (Homo sapiens, UniProt Q04912); experiment: Human phospho-RTK array, HuH7: Ron; format: cell-based; details: 24 h, untreated 0.04
T6 construct: endogenous in cells; host or cells: HuH7
Description: as §4, §5

IGF-1R [5] = biological target: T2, IGF-1R; experiment: Human phospho-RTK array, HuH7: IGF-1R; format: cell-based; details: 24 h, untreated 0.19
Description: as §4, §5

caspase-3 = experiment: Caspase-3 activity assay in HuH7 and HepG2; format: cell-based, human; details: HuH7 and HepG2, 24 h, Ac-DEVD-AMC hydrolysis
Description: HuH7 (darker bar) and HepG2 (lighter bar) cells treated as described in FIG. 4 were harvested for caspase-3 assay performed by the catalytic hydrolysis of fluorogenic Ac-DEVD-AMC. Results were expressed as a normalized RFU per μg lysate per h of incubation with the AMC substrate (n=3).
Cells were subjected to Compound 47 treatment for 24 h prior to harvesting. Caspase-3 activities were determined by as previously described (Ho HK, Pok S, Streit S, Ruhe J E, Hart S, Lim K S, et al. Fibroblast growth factor receptor 4 regulates proliferation, anti-apoptosis and alpha-fetoprotein secretion during hepatocellular carcinoma progression and represents a potential target for therapeutic intervention. J Hepatol 2009 January; 50(1):118-127). Data were expressed as RFU/μg lysate/h incubation and error bars in terms of SD with n=3.
Next, the mechanism of Compound 47's anti-proliferative effects was investigated. […] However, there was little effect on the mitochondrial apoptotic players Bax and BCL-xL.

EGFR [6] = biological target: T1, EGFR; format: cell-based
Met = biological target: T7, Met (Homo sapiens, UniProt P08581); experiment: Human phospho-RTK array, HuH7: Met; format: cell-based; details: 24 h, untreated 0.05
T7 construct: endogenous in cells; host or cells: HuH7
Description: as §4, §5

Tyro3 [7] = biological target: T5, Tyro3; experiment: Immunoprecipitation / anti-phosphotyrosine blot of Tyro3 in HuH7; format: cell-based; details: HuH7, 24 h; Compound 47 1, 5 or 10 μM, sunitinib 10 μM

T2 sequence (P08069 31-1367): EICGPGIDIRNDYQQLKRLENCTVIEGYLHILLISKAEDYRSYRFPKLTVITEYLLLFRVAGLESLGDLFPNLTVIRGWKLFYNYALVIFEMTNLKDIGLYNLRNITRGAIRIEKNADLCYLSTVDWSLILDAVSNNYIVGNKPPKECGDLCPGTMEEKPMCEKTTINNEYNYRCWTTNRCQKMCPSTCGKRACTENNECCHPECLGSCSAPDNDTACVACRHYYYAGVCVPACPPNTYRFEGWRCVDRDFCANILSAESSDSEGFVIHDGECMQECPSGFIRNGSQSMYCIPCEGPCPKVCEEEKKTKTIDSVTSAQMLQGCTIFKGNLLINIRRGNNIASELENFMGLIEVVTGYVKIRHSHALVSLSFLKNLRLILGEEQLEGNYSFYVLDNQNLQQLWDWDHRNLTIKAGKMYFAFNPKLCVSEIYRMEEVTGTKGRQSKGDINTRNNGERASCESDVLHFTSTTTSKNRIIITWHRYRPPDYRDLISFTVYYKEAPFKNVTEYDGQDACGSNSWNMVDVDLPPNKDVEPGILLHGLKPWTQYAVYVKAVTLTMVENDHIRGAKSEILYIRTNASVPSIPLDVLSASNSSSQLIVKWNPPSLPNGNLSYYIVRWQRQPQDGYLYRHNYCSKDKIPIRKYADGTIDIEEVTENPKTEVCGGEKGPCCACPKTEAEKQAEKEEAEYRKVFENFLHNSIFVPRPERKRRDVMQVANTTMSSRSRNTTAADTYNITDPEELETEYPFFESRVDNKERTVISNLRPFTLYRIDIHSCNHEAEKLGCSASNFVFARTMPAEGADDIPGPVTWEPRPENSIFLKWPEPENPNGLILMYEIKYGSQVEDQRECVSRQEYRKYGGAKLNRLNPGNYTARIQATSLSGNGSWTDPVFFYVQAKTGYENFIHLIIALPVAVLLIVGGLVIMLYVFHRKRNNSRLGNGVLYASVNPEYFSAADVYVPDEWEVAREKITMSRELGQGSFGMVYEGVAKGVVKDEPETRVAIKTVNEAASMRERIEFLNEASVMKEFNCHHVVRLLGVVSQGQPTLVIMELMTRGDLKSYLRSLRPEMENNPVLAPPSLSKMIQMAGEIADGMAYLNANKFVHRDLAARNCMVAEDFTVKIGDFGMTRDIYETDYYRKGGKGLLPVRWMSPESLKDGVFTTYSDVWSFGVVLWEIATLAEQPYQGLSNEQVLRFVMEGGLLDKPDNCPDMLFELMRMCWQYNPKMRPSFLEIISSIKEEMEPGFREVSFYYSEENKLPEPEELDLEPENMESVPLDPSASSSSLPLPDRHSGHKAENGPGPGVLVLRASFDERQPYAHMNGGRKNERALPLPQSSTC
T1 sequence (P00533 25-1210): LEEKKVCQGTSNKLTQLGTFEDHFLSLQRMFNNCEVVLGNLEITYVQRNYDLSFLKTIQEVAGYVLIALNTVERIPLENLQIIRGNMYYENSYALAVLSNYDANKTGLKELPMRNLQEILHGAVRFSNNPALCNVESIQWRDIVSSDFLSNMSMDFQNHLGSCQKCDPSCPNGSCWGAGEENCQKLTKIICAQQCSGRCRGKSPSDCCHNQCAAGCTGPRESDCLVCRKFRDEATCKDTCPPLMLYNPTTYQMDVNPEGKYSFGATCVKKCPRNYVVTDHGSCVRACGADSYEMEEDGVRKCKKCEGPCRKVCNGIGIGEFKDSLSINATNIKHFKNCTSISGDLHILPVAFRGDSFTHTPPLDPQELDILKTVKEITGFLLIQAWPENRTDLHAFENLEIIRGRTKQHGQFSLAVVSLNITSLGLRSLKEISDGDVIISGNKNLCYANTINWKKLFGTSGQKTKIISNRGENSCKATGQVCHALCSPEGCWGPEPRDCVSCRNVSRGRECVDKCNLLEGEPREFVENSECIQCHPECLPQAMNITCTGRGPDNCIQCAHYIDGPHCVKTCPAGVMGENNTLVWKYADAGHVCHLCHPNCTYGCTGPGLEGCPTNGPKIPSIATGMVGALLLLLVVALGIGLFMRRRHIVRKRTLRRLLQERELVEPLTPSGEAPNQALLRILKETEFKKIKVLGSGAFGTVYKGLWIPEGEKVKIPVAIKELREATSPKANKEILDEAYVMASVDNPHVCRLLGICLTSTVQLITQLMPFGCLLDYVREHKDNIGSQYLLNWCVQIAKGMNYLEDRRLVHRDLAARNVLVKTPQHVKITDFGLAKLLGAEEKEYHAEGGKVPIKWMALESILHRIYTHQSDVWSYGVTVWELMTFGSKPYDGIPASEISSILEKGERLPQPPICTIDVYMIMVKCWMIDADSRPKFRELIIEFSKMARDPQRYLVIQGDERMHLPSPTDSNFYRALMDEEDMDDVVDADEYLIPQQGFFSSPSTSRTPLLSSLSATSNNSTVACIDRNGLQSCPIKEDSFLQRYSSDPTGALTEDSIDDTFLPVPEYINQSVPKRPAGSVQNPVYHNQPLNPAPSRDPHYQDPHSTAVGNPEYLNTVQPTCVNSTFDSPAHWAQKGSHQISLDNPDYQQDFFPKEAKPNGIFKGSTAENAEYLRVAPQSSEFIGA
T7 sequence (P08581 25-1390): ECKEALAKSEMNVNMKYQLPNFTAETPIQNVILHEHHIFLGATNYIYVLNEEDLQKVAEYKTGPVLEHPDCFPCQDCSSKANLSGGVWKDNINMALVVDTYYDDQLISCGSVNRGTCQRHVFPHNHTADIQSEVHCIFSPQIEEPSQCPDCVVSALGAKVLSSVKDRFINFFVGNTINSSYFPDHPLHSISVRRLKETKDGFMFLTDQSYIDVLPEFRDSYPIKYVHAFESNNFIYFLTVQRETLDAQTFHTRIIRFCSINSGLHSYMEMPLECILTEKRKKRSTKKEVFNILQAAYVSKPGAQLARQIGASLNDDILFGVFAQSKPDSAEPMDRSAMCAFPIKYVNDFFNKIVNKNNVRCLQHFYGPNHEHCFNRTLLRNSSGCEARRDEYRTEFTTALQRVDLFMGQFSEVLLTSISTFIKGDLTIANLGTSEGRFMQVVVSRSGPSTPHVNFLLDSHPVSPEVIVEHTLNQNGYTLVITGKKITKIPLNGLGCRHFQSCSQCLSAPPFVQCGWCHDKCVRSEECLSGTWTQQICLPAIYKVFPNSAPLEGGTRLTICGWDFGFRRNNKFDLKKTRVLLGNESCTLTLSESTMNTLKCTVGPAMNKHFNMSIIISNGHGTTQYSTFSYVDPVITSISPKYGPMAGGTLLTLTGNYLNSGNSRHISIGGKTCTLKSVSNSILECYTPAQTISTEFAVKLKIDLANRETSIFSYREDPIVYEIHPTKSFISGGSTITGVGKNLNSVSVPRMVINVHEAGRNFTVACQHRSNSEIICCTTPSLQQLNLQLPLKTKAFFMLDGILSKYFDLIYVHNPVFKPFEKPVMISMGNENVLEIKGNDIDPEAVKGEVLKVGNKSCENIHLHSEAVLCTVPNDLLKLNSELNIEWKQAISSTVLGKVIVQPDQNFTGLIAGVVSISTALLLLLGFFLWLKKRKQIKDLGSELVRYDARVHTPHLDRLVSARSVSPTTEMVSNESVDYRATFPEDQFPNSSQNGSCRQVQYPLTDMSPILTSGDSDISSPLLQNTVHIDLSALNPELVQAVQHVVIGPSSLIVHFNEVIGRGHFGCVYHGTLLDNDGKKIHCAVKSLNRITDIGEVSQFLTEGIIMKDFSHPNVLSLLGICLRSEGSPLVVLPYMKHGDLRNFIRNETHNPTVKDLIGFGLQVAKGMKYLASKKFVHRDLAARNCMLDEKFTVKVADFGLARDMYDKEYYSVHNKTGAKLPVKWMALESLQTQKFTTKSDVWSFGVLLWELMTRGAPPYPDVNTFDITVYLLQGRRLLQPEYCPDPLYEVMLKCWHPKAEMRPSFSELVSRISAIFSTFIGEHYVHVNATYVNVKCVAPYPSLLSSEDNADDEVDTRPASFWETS
T3 sequence (P29317 24-976): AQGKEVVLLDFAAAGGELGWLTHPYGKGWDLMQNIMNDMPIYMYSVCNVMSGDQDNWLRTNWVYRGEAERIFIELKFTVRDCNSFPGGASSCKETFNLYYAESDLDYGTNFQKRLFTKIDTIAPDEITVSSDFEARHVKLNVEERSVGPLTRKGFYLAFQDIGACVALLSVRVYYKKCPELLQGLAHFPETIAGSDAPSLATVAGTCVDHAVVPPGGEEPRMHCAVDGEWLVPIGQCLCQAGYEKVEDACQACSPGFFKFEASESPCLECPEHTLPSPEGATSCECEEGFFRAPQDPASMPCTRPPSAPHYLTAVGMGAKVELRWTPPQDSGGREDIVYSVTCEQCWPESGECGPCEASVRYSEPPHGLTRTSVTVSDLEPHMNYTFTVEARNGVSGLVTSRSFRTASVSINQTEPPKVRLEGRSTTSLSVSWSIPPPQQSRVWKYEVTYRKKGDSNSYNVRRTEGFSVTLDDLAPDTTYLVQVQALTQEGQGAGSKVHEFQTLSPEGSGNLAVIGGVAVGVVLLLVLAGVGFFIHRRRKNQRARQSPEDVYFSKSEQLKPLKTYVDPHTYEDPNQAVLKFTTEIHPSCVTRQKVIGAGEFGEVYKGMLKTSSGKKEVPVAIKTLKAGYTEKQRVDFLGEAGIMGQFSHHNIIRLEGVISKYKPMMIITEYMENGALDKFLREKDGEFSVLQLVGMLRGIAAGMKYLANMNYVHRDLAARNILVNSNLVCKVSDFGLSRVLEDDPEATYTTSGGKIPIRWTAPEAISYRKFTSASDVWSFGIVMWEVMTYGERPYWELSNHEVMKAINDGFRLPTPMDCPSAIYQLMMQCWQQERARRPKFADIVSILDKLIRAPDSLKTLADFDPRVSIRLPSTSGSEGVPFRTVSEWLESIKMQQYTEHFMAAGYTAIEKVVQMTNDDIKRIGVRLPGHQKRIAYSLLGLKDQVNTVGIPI

O=C1Nc2cc(Cl)ccc2/C1=C\c1cccc(C(F)(F)F)c1 [Compound 47, (E)-6-Chloro-3-(3-(trifluoromethyl)benzylidene)indolin-2-one]
IC50 in 3 of the 4 additional HCC cell lines tested [1]: low micromolar or submicromolar
EGFR Phosphorylation (EGFR [2]; serum starved HuH7, 1 μM): 0.19 Arbitrary units
EGFR Phosphorylation (EGFR [2]; serum starved HuH7, 5 μM): 0.44 Arbitrary units
EGFR Phosphorylation (EGFR [2]; serum starved HuH7, 10 μM): 0.53 Arbitrary units
IGF-1R phosphorylation (Y980 and Y1135/1136) by immunoblot (IGF-1R [3]): proportional reduction
EphA2 phosphorylation by immunoblot (EphA2): proportional reduction
viability Hs817T (Hs817T): undetectable viability
Her3 Phosphorylation (Her3; serum starved HuH7, 1 μM): 0.07 Arbitrary units
Her3 Phosphorylation (Her3; serum starved HuH7, 5 μM): 0.04 Arbitrary units
Her3 Phosphorylation (Her3; serum starved HuH7, 10 μM): 0.03 Arbitrary units
Tyro-3 Phosphorylation (Tyro3 [4]; serum starved HuH7, 1 μM): 0.10 Arbitrary units
Tyro-3 Phosphorylation (Tyro3 [4]; serum starved HuH7, 5 μM): 0.11 Arbitrary units
Tyro-3 Phosphorylation (Tyro3 [4]; serum starved HuH7, 10 μM): 0.07 Arbitrary units
IC50 (SK-Hep1): > 10 µM
Ron Phosphorylation (Ron; serum starved HuH7, 1 μM): 0.06 Arbitrary units
Ron Phosphorylation (Ron; serum starved HuH7, 5 μM): 0.05 Arbitrary units
Ron Phosphorylation (Ron; serum starved HuH7, 10 μM): 0.03 Arbitrary units
IGF-1R Phosphorylation (IGF-1R [5]; serum starved HuH7, 1 μM): 0.22 Arbitrary units
IGF-1R Phosphorylation (IGF-1R [5]; serum starved HuH7, 5 μM): 0.13 Arbitrary units
IGF-1R Phosphorylation (IGF-1R [5]; serum starved HuH7, 10 μM): 0.07 Arbitrary units
caspase-3 activity (caspase-3): activation
EGFR phosphorylation by immunoblot (EGFR [6]): unexpected increase
Met Phosphorylation (Met; serum starved HuH7, 1 μM): 0.08 Arbitrary units
Met Phosphorylation (Met; serum starved HuH7, 5 μM): 0.05 Arbitrary units
Met Phosphorylation (Met; serum starved HuH7, 10 μM): 0.02 Arbitrary units
Tyro3 phosphorylation by immunoblot (Tyro3 [7]): inhibited even at the lowest concentration used (1 μM)
